# Experimental data: patent US20240285634A1, “COMPOUND AND METHOD FOR TREATING CHEMOTHERAPY-ASSOCIATED GASTROINTESTINAL SIDE EFFECTS” (ONQUALITY PHARMACEUTICALS CHINA LTD., priority 2021, published 2024)
# Experiments:
# [1] = tested on: Chemotherapeutic agent-caused constipation models of Balb/c mice; assay: Relieving effect on constipation caused by a chemotherapeutic agent (Examples 202-364); format: in vivo; settings: administered before the chemotherapeutic agent; Table 4 and FIG. 4
# Excerpt: Construction of mouse animal models: Chemotherapeutic agent-caused constipation models of Balb/c mice were constructed according to the administration mode and frequency of the chemotherapeutic agent as shown in Table 4. […] Thus, chemotherapeutic agent-caused constipation models of mice are very good models to mimic constipation caused by the chemotherapeutic agent.
# Balb/c mice were fed for 1 week, and then divided into groups. The experiment was divided into a control group, a chemotherapeutic agent group, and a group of the compound as shown in Formula I, each of which comprised 10 mice, to perform the administration experiment, for which the administration dosage, mode, time and frequency were shown in Table 4. The control group: being injected or intragastrically administered with the same solvent as that used in the group of the compound as shown in Formula I (the administration mode and time were shown in Table 4), and then being injected or intragastrically administered with the same solvent as that used in the chemotherapeutic agent group (the administration mode was shown in Table 4); the chemotherapeutic agent group: being injected or intragastrically administered with the same solvent as that used in the group of the compound as shown in Formula I (the administration mode and time was shown in Table 4), and then being injected or intragastrically administered with the chemotherapeutic agent (the type, administration mode and dosage were shown in Table 4); the group of the compound as shown in Formula I: being injected or intragastrically administered with the compound as shown in Formula I (the administration mode and time was shown in Table 4), and then being administered with the chemotherapeutic agent (the administration mode and dosage were shown in Table 4).
# The feces reduction rate was calculated with reference to the method of Ji Eun Kim (Lab Anim Res. 2016 December; 32(4): 231-240.). Feces reduction rate (%)=(the control group−the chemotherapeutic agent group or the group of the compound as shown in Formula I)/the control group*100%
# It is regarded as effective remission when the feces reduction rate of mice in the group of the compound as shown in Formula I is reduced compared with that in the chemotherapeutic agent group.
# The feces amount of mice within 3 hours was observed and recorded every day. At the end of the experiment, the number of mice in the group of the compound as shown in Formula I whose feces reduction rate was lower than that of mice in the chemotherapeutic agent group was recorded. Table 4 lists various animal experiment combinations of chemotherapeutic agents and the compound as shown in Formula I, as well as the corresponding experimental results.
# [2] = tested on: Chemotherapeutic agent-caused diarrhea models of Balb/c mice; assay: Relieving effect on diarrhea caused by a chemotherapeutic agent (Examples 1-201); format: in vivo
# Excerpt: Construction of mouse animal models: Chemotherapeutic agent-caused diarrhea models of Balb/c mice were constructed according to the administration mode and frequency of the chemotherapeutic agent as shown in Table 3. After administration for several days, mice developed different extents of diarrhea symptoms (as shown in FIG. 1), which were similar to the conditions in human. Thus, chemotherapeutic agent-caused diarrhea models of mice are very good models to mimic diarrhea in human caused by the chemotherapeutic agent.
# Balb/c mice were fed for 1 week, and then divided into groups. The experiment was divided into a control group, a chemotherapeutic agent group, and a group of the compound as shown in Formula I, each of which comprised 10 mice, to perform the administration experiment, for which the administration dosage, mode, time and frequency were shown in Table 3. The control group: being injected or intragastrically administered with the same solvent as that used in the group of the compound as shown in Formula I (the injection mode and time were shown in Table 3), and then being injected or intragastrically administered with the same solvent as that used in the chemotherapeutic agent group (the administration mode was shown in Table 3); the chemotherapeutic agent group: being injected or intragastrically administered with the same solvent as that used in the group of the compound as shown in Formula I (the administration mode and time were shown in Table 3), and then being injected or intragastrically administered with the chemotherapeutic agent (the type, administration mode and dosage were shown in Table 3); the group of the compound as shown in Formula I: being injected or intragastrically administered with the compound as shown in Formula I (the administration mode and time were shown in Table 3), and then being administered with the chemotherapeutic agent (the administration mode and dosage were shown in Table 3).
# The scoring of diarrhea can refer to the method of Akinobu Kurita (Cancer Chemother Pharmacol 2000; 46:211-20.), Grade 0: normal feces; Grade 1: mild diarrhea, the stools is slightly wet and soft; Grade 2: moderate diarrhea, loose stools and mild perianal contamination; Grade 3: severe diarrhea, watery stools and accompanied by severe perianal staining (see FIG. 1). It is regarded as effective remission when the diarrhea grading of mice in the group of the compound as shown in Formula I is reduced compared with the average diarrhea grading of mice in the chemotherapeutic agent group.
# The diarrhea grading of mice was observed and recorded every day. At the end of the experiment, the number of mice in the group of the compound as shown in Formula I whose diarrhea grading was lower than that of mice in the chemotherapeutic agent group was recorded. Table 3 lists various animal experiment combinations of chemotherapeutic agents and the compound as shown in Formula I, as well as the corresponding experimental results. (Relative remission rate %=the number of mice in the group of the compound as shown in Formula I whose diarrhea has been effectively relieved/the total number of mice in the group of the compound as shown in Formula I*100%. The establishment rate of diarrhea model in the chemotherapeutic agent group was 50%-70%, that is, about 5-7 of 10 mice developed diarrhea during the experiment, and there were cases of individual mice death or not developing diarrhea.)
compound,measurement,setting,value
"CN1CCN(c2ccc(Nc3ncc4cc5n(c4n3)C3(CCCCC3)CNC5=O)nc2)CC1 [Compound I, Trilaciclib]",feces reduction rates compared with the chemotherapeutic agent group,[1],reduced to different degrees
same,Relative remission rate,"[2]; Ex 1, 5-Fu 125 mg/kg intraperitoneal single, compound 100 mg/kg intravenous single 0.5 h before, cycle 10 days",70%
same,Relative remission rate,"[2]; Ex 2, 5-Fu 125 mg/kg intraperitoneal single, compound 100 mg/kg intravenous single 1 h before, cycle 10 days",70%
same,Relative remission rate,"[2]; Ex 3, 5-Fu 125 mg/kg intraperitoneal single, compound 100 mg/kg intravenous single 2 h before, cycle 10 days",60%
same,Relative remission rate,"[2]; Ex 4, 5-Fu 125 mg/kg intraperitoneal single, compound 100 mg/kg intravenous single 3 h before, cycle 10 days",60%
same,Relative remission rate,"[2]; Ex 5, 5-Fu 125 mg/kg intraperitoneal single, compound 100 mg/kg intravenous single 4 h before, cycle 10 days",60%
same,Relative remission rate,"[2]; Ex 6, 5-Fu 125 mg/kg intraperitoneal single, compound 100 mg/kg intravenous single 5 h before, cycle 10 days",40%
same,Relative remission rate,"[2]; Ex 7, 5-Fu 125 mg/kg intraperitoneal single, compound 100 mg/kg intravenous single 6 h before, cycle 10 days",40%
same,Relative remission rate,"[2]; Ex 8, 5-Fu 125 mg/kg intraperitoneal single, compound 100 mg/kg intravenous single 7 h before, cycle 10 days",40%
same,Relative remission rate,"[2]; Ex 9, 5-Fu 125 mg/kg intraperitoneal single, compound 100 mg/kg intravenous single 8 h before, cycle 10 days",50%
same,Relative remission rate,"[2]; Ex 10, 5-Fu 125 mg/kg intraperitoneal single, compound 100 mg/kg intravenous single 9 h before, cycle 10 days",40%
same,Relative remission rate,"[2]; Ex 11, 5-Fu 125 mg/kg intraperitoneal single, compound 100 mg/kg intravenous single 10 h before, cycle 10 days",50%
same,Relative remission rate,"[2]; Ex 12, 5-Fu 125 mg/kg intraperitoneal single, compound 100 mg/kg intravenous single 11 h before, cycle 10 days",40%
same,Relative remission rate,"[2]; Ex 13, 5-Fu 125 mg/kg intraperitoneal single, compound 12.5 mg/kg intravenous single 12 h before, cycle 10 days",30%
same,Relative remission rate,"[2]; Ex 14, 5-Fu 125 mg/kg intraperitoneal single, compound 25 mg/kg intravenous single 12 h before, cycle 10 days",40%
same,Relative remission rate,"[2]; Ex 15, 5-Fu 125 mg/kg intraperitoneal single, compound 50 mg/kg intravenous single 12 h before, cycle 10 days",60%
same,Relative remission rate,"[2]; Ex 16, 5-Fu 125 mg/kg intraperitoneal single, compound 100 mg/kg intravenous single 12 h before, cycle 10 days",70%
same,Relative remission rate,"[2]; Ex 17, 5-Fu 125 mg/kg intraperitoneal single, compound 150 mg/kg intravenous single 12 h before, cycle 10 days",50%
same,Relative remission rate,"[2]; Ex 18, 5-Fu 125 mg/kg intraperitoneal single, compound 240 mg/kg intravenous single 12 h before, cycle 10 days",50%
same,Relative remission rate,"[2]; Ex 86, Oxaliplatin 17.5 mg/kg intravenous single, compound 150 mg/kg intravenous single 20 h before, cycle 8 days",40%
same,Relative remission rate,"[2]; Ex 87, Oxaliplatin 17.5 mg/kg intravenous single, compound 150 mg/kg intravenous single 24 h before, cycle 8 days",50%
same,Relative remission rate,"[2]; Ex 88, Oxaliplatin 17.5 mg/kg intravenous single, compound 150 mg/kg intravenous single 48 h before, cycle 8 days",0%
same,Relative remission rate,"[2]; Ex 92, Irinotecan (CPT-11) 240 mg/kg intraperitoneal single, compound 100 mg/kg intravenous single 0.5 h before, cycle 7 days",50%
same,Relative remission rate,"[2]; Ex 93, Irinotecan (CPT-11) 240 mg/kg intraperitoneal single, compound 100 mg/kg intravenous single 1 h before, cycle 7 days",50%
same,Relative remission rate,"[2]; Ex 94, Irinotecan (CPT-11) 240 mg/kg intraperitoneal single, compound 100 mg/kg intravenous single 2 h before, cycle 7 days",50%
same,Relative remission rate,"[2]; Ex 95, Irinotecan (CPT-11) 240 mg/kg intraperitoneal single, compound 100 mg/kg intravenous single 3 h before, cycle 7 days",40%
same,Relative remission rate,"[2]; Ex 96, Irinotecan (CPT-11) 240 mg/kg intraperitoneal single, compound 100 mg/kg intravenous single 4 h before, cycle 7 days",50%
same,Relative remission rate,"[2]; Ex 97, Irinotecan (CPT-11) 240 mg/kg intraperitoneal single, compound 100 mg/kg intravenous single 5 h before, cycle 7 days",40%
same,Relative remission rate,"[2]; Ex 98, Irinotecan (CPT-11) 240 mg/kg intraperitoneal single, compound 100 mg/kg intravenous single 6 h before, cycle 7 days",40%
same,Relative remission rate,"[2]; Ex 99, Irinotecan (CPT-11) 240 mg/kg intraperitoneal single, compound 100 mg/kg intravenous single 7 h before, cycle 7 days",70%
same,Relative remission rate,"[2]; Ex 100, Irinotecan (CPT-11) 240 mg/kg intraperitoneal single, compound 100 mg/kg intravenous single 8 h before, cycle 7 days",70%
same,Relative remission rate,"[2]; Ex 101, Irinotecan (CPT-11) 240 mg/kg intraperitoneal single, compound 100 mg/kg intravenous single 9 h before, cycle 7 days",60%
same,Relative remission rate,"[2]; Ex 102, Irinotecan (CPT-11) 240 mg/kg intraperitoneal single, compound 100 mg/kg intravenous single 10 h before, cycle 7 days",40%
same,Relative remission rate,"[2]; Ex 103, Irinotecan (CPT-11) 240 mg/kg intraperitoneal single, compound 100 mg/kg intravenous single 11 h before, cycle 7 days",60%
same,Relative remission rate,"[2]; Ex 104, Irinotecan (CPT-11) 240 mg/kg intraperitoneal single, compound 100 mg/kg intravenous single 12 h before, cycle 7 days",60%
same,Relative remission rate,"[2]; Ex 105, Irinotecan (CPT-11) 240 mg/kg intraperitoneal single, compound 100 mg/kg intravenous single 14 h before, cycle 7 days",50%
same,Relative remission rate,"[2]; Ex 106, Irinotecan (CPT-11) 240 mg/kg intraperitoneal single, compound 100 mg/kg intravenous single 16 h before, cycle 7 days",70%
same,Relative remission rate,"[2]; Ex 107, Irinotecan (CPT-11) 240 mg/kg intraperitoneal single, compound 100 mg/kg intravenous single 18 h before, cycle 7 days",70%
same,Relative remission rate,"[2]; Ex 108, Irinotecan (CPT-11) 240 mg/kg intraperitoneal single, compound 100 mg/kg intravenous single 20 h before, cycle 7 days",40%
same,Relative remission rate,"[2]; Ex 109, Irinotecan (CPT-11) 240 mg/kg intraperitoneal single, compound 100 mg/kg intravenous single 22 h before, cycle 7 days",40%
same,Relative remission rate,"[2]; Ex 110, Irinotecan (CPT-11) 240 mg/kg intraperitoneal single, compound 100 mg/kg intravenous single 24 h before, cycle 7 days",30%
same,Relative remission rate,"[2]; Ex 111, Irinotecan (CPT-11) 240 mg/kg intraperitoneal single, compound 100 mg/kg intravenous single 48 h before, cycle 7 days",0%
same,Relative remission rate,"[2]; Ex 118, Irinotecan (CPT-11) 300 mg/kg oral single, compound 100 mg/kg intraperitoneal single 12 h before, cycle 11 days",50%
same,Relative remission rate,"[2]; Ex 119, Irinotecan (CPT-11) 250 mg/kg intramuscular single, compound 100 mg/kg intramuscular single 1 h before, cycle 7 days",70%
same,Relative remission rate,"[2]; Ex 120, Irinotecan (CPT-11) 200 mg/kg intravenous single, compound 100 mg/kg intravenous single 0. h before, cycle 7 days",70%
same,Relative remission rate,"[2]; Ex 121, Fluorouracil 100 + irinotecan 200 mg/kg intravenous single, compound 100 mg/kg intravenous single 0.5 h before, cycle 10 days",70%
same,Relative remission rate,"[2]; Ex 122, Fluorouracil 100 + irinotecan 200 mg/kg intravenous single, compound 100 mg/kg intravenous single 4 h before, cycle 10 days",40%
